The values that follow come from patent publication US20020095001A1, “Methods and compositions for topical treatment of damaged tissue using reactive oxygen metabolite production or release inhibitors” (priority 1999, published 2002).

The term Km denotes the concentration of substrate that gives half-maximal velocity.

The target of one test is T1, NADPH oxidase (Homo sapiens, UniProt P04839).
T1 construct: host or cells: phagocytes / neutrophils (background description)
As to conditions: membrane bound oxidase of phagocytes, substrate preference; generally accepted; cited from earlier work.

For test [1], the system named is pharyngotosillitis, a herpetic infection of the pharyngeal region. As to the kind of experiment: Example 5: pharyngotonsillitis treated with a mouthwash. Format: in vivo, human. As to conditions: mouthwash 0.05% by weight, five applications per day for seven days. As for the experimental part:
A subject suffering from pharyngotosillitis, a herpetic infection of the pharyngeal region is treated with a mouthwash containing the ROM inhibitory compound NADPH oxidase inhibitor […] in a concentration of 0.05% by weight of formulation. The treatment consists of five mouthwash applications per day for a period of seven days. The administration of […] was effective in treating the pharyngotosillitis of the subject.

The test system of test [2] is herpes labialis. The note with it: cream with 0.08% by weight, topical four to five times a day; compared to control cream group.
Text: Treatment of the subjects consists of the topical application of the medication four to five times a day at the lesion site.
The next test has as its system psoriasis of the scalp. How it is done:
A subject suffering from psoriasis of the scalp is treated with a shampoo containing approximately 0.008% by weight of histamine dihydrochloride. The subject undergoes UVB treatment in accordance with a protocol well known to those of ordinary skill in the art. In addition, the subject washes their hair once per day with the shampoo containing the ROM production and release inhibitory compound histamine.

The test system of test [3] is chemical peel treated skin. The note with it: solution 0.008% by weight, soaking five times daily after chemical peel. The source says: The solution is applied by soaking the treated five times daily to the treated area.
Test [4] deals with keratoconjunctivitis or a corneal herpes infection. As to conditions: ophthalmic solution 0.09% by weight with ZOVIRAX every three hours, plus solution without ZOVIRAX hourly. As for the experimental part: A subject presenting keratoconjunctivitis or a corneal herpes infection is treated with the compositions of the present invention using an ophthalmic solution of histamine dihydrochloride at 0.09% by weight of formulation. Commercially available ophthalmic solutions are well known in the art. Additionally, the ophthalmic solution contains ZOVIRAX in an effective concentration. Application of the solution to the eye occurs every three hours. A solution containing only the ROM production and release inhibiting compound is given hourly to ease the discomfort of the subject.

For the next test, the system named is incision of the skin. The note with it: formulation 0.0045% by weight with vitamin A 2000 IU, vitamin E 5000 IU and a topical antibiotic, twice a day. How it is done: The compositions of the present invention are administered topically to a subject presenting an incision of the skin. A formulation containing histamine dihydrochloride in a concentration of 0.0045% by weight of the formulation, vitamin A at 2000 IU, vitamin E at 5000 IU, and a topical antibiotic is applied to the wound following proper wound cleansing. Subsequent administration of the formulation occurs twice a day and with each change of wound dressing.

For test [5], the system named is herpes zoster or shingles lesions. As to conditions: ointment approx. 0.004% by weight four times a day plus subcutaneous histamine 10 μg/kg once per week. How it is done: A subject presenting herpes zoster or shingles lesions is treated with the compounds of the present invention in the form of an ointment. […] The ointment is administered topically to shingles lesions four times a day until the lesions completely heal. A subcutaneous injection of histamine at a concentration of 10 μg/kg of the subject is also administered. The injection is given once per week.

The test system of another test is periodontal disease. As to conditions: mouthwash and toothpaste, each 0.008% by weight, three times daily. As for the experimental part:
A subject presenting periodontal disease is treated with a mouthwash and toothpaste, each containing 0.008% by weight of histamine dihydrochloride. The subject brushes their teeth three times daily with the toothpaste for ten minutes. Following this cleansing, the subject washes their mouth with the mouthwash, rinses with water, and repeats. The treatment continues until the health of the periodontal tissue improves.

Test [6] has as its system herpes labialis. The note with it: cream 0.08% by weight five times a day together with ZOVIRAX; compared to ZOVIRAX alone.
Experimental: The ability of the ROM production and release inhibition compounds of the present invention to increase the effectiveness of 9-(2-Hydroxyethoxymethyl)guanine, ZOVIRAX, (GlaxoWellcome) is evaluated in two groups of 10 subjects each. No subjects are suffering from active lesions at the initiation of the study. Group I subjects receive ZOVIRAX according to the dosage given by the manufacturer. […] Application of the cream continues during vesicle formation and until the vesicles have completely healed. Subjects in both groups are instructed to topically apply the product five times a day at the lesion site.
Subjects participating in the study are instructed to monitor the size and duration of the lesions during the herpetic episode.
Test [7] has as its system laser facial resurfacing treated skin. The note with it: bandage with sterile solution 0.008% by weight five times daily, plus sunscreen 0.008% by weight. An excerpt:
The bandage containing the sterile solution of histamine dihydrochloride is applied five times daily to the treated area. A sunscreen containing 0.008% by weight of histamine dihydrochloride is also applied before the subject is to be exposed to sunlight.

Another test deals with chemical burn injuries. The note with it: water-based gel 0.007% by weight; every 10 minutes first hour, every 30 minutes next three hours, then as needed. How it is done: The compositions of the present invention are administered topically to a subject presenting chemical burn injuries. A water-based gel preparation containing of 0.007% by weight of the formulation of histamine dihydrochloride was administered to the subject's burn injuries. The treatment consisted of topical application of the gel to the burn site every 10 minutes for the first hour, then every 30 minutes for the next three hours. Topical applications thereafter are applied as needed by the subject in response to pain.

The subject of test [8] is varicella-zoster virus (chicken pox) infection. The note with it: child; paste 0.02% by weight five times per day and soap 0.1% by weight during bathing.
Experimental: A child presenting the symptoms of chicken pox is treated with the compounds of the present invention. In this example, two products are used to treat the subject. […] The paste is applied five times per day until the vesicles have completely healed.
For another test, the system named is eczema. As to conditions: soap approx. 0.1% by weight once daily and lotion approx. 0.0055% by weight up to five times a day. How it is done: A subject presenting eczema is treated with a lotion and soap containing the ROM production and release inhibitory compound histamine dihydrochloride. The soap contains histamine in a concentration of approximately 0.1% by weight while the lotion contains histamine in a concentration of approximately 0.0055% by weight. The subject bathes with the soap once daily. The affected area is lathered well with the soap, rinsed, and the procedure is repeated. Following the bath, the lotion is applied up to five times throughout the day to the affected area.

The subject of test [9] is photodermatitis (second degree sunburn). As to conditions: aloe vera based gel such as SOOTH-A-CAINE containing 0.006% by weight. An excerpt:
The ROM production and release inhibitory compound serotonin is used in a gel to treat a subject presenting photodermatitis (second degree sunburn) and attendant blister formation. The subject has blister formation as well as deep reddening of the epidermis on the back.

The test system of another test is thermal burn injuries. Nature of the test: Example 15: thermal burn injuries treated with a water-based gel. In kind it is in vivo, human. The note with it: water-based gel 0.007% by weight; every 10 minutes first hour, every 30 minutes next three hours, then as needed.
In test [10] the test system is herpes labialis. The note with it: 0.07% by weight lipstick, three times a day for five days. An excerpt:
The treatment consists of topical application three times a day for a period of five days.

The next test has as its system herpes genitalis. As to conditions: 0.07% by weight foam (vaginal) and cream (external), three times a day for five days. How it is done:
Using an applicator, the foam is injected into the vaginal space to treat herpetic lesions therein. The cream is applied topically to external lesions. The cream and foam are applied three times a day for a period of five days.

Experimental for thermal burn injuries: The compositions of the present invention are administered topically to a subject presenting thermal burn injuries. A water-based gel preparation containing of 0.007% by weight of the formulation of serotonin was administered to the subject's burn injuries. The treatment consisted of topical application of the gel to the burn site every 10 minutes for the first hour, then every 30 minutes for the next three hours. Topical applications thereafter are applied as needed by the subject in response to pain.

Turning to `NC(=O)C1=CN([C@@H]2O[C@H](COP(=O)(O)OP(=O)(O)OC[C@H]3O[C@@H](n4cnc5c(N)ncnc54)[C@H](O)[C@@H]3O)[C@@H](O)[C@H]2O)C=CC1` [NADH], the Km at NADPH oxidase is 450 µM.
On to `NC(=O)C1=CN([C@@H]2O[C@H](COP(=O)(O)OP(=O)(O)OC[C@H]3O[C@@H](n4cnc5c(N)ncnc54)[C@H](OP(=O)(O)O)[C@@H]3O)[C@@H](O)[C@H]2O)C=CC1` [NADPH], for which the Km at NADPH oxidase was 45 µM.
As to `c1ccc2c(c1)[I+]c1ccccc1-2` [diphenlyeneiodonium], the “effectiveness in treating the pharyngotosillitis” value in test [1] is on record as “effective”.
As to `Cl.Cl.NCCc1c[nH]cn1` [histamine dihydrochloride], in the test on herpes labialis [2], the “healing time of herpetic lesions” value is listed as “decrease in healing time”. Besides, in the test with psoriasis of the scalp (shampoo approx. 0.008% by weight once per day with UVB, compared to UVB treatment alone), the “rate of reduction in symptoms” value is reported as “reduction in symptoms at a greater rate”. The “irritation of the affected area” value with psoriasis of the scalp (shampoo approx. 0.008% by weight once per day, with UVB treatment) is reported as “reduces the irritation of the affected area”. The rate of healing result in test [3] is “rate of healing is increased”. Also, in test [4], the “damage caused by the viral outbreak” value is on record as “reduces”, the “discomfort of the patient” value is on record as “reduces the discomfort of the patient” and the “time period of viral activity” value is given as “reduces the time period of viral activity”. Besides, in the test on incision of the skin, the “healing of the incision” value is “promotes healing of the incision” and the scar formation entry is on record as “reduces scar formation”. In [5], the “time required for the healing of the herpetic lesions” value was “reduces the time required for the healing”. For the same compound, the rate of healing entry in the test with periodontal disease is “rate of healing is increased”. The “size of the herpetic lesions forming during the outbreak period” value in the test with herpes labialis [6] is “decrease in the size of the herpetic lesions”. Moreover, the rate of healing result in test [7] is given as “rate of healing is increased”. In addition, in the test on chemical burn injuries, the “discomfort of the subject” value is “reduces the discomfort” and the “healing of the burn injuries” value is recorded as “promotes healing”. Moreover, in [8], the healing of vesicles result is “causes the vesicles to heal rapidly” and the “level of discomfort experienced by the subject” value is recorded as “decreases the level of discomfort”. In addition, in the test on eczema, the “general condition of the skin in the affected area” value is “increase in the general condition of the skin” and the symptoms of eczema result is “decrease in the symptoms”.
As for `NCCc1c[nH]cn1` [histamine], in test [9], the “blistering and amount of skin sloughed off as a result of the irradiation” value was “decrease in blistering and the amount of skin sloughed off”; the “discomfort in the subject” value is reported as “reduction of discomfort”.
For the compound `NCCc1c[nH]c2ccc(O)cc12` [serotonin], in the test on thermal burn injuries, the “discomfort of the subject” value was “reduces the discomfort” and the “healing of the burn injuries” value is on record as “promotes healing”.
For histamine diphosphate, the “healing time of the ruptured herpetic vesicles” value in the test with herpes labialis [10] and in the test on herpes genitalis was “reduced the healing time” throughout.
